From ChEMBL document CHEMBL1201862, “PubChem BioAssay data set” (2004) come the findings set out here.

Assay in all cases: DTP human tumour cell line panel, 48 h
Experiment [1] concerns DU-145.
Experiment [2] deals with HCT-15.
For experiment [3], the system named is MDA-MB-231.
For experiment [4], the system named is CAKI-1.
In experiment [5] the test system is UACC-62.
For experiment [6], the system named is BT-549.
Experiment [7] concerns MDA-MB-435.
The subject of experiment [8] is A498.
Experiment [9] relates to OVCAR-4.
In experiment [10] the test system is HCC 2998.
Experiment [11] deals with M14.
Experiment [12] relates to UACC-257.
For experiment [13], the system named is COLO 205.
Experiment [14] concerns TK-10.
Experiment [15] relates to SK-MEL-2.
In experiment [16] the test system is HOP-62.
For experiment [17], the system named is SNB-75.
In experiment [18] the test system is OVCAR-8.
Experiment [19] deals with Malme-3M.
The subject of experiment [20] is Hs-578T.

SMILES strings stand for the structures.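 Cultured in 96-well plates, cells were exposed to test compound for 48 hours across five concentrations. Here, GI50 denotes the concentration required for 50% inhibition of growth.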 Active and inactive are the calls of the source. Rule as the data show it: active = GI50 up to about 1.1 µM and inactive = higher. Where a SMILES comes first, the peptide text is derived from it. The star is where a group is joined. Cbz = O=C(OCc1ccccc1)*; Boc = CC(C)(C)OC(=O)*; Bn = c1ccc(C*)cc1

The GI50 is the concentration that inhibits growth by half. On to `O=C(CCCC(=O)N1CC(CCl)c2ccc([N+](=O)[O-])cc21)N1CC(CCl)c2ccc([N+](=O)[O-])cc21` (stereo not drawn), for which the GI50 in [1] is 81.3 µM (inactive); in experiment [2], more than 100 µM; in [3], > 100 µM (inactive); in [4] it was > 100 µM (inactive); in experiment [5] it was > 100 µM (inactive); in experiment [6], > 100 µM (inactive). The GI50 in experiment [7] is > 100 µM (inactive); in experiment [8], 34 µM (inactive); in [9] it was > 100 µM (inactive); in experiment [10] it was 63.8 µM (inactive); in [11], > 100 µM (inactive); in [12], > 100 µM (inactive). In addition, the GI50 in experiment [13], in experiment [14], in experiment [15] and in experiment [16] was > 100 µM (inactive) each time.
For `CN(C)c1ccc(-c2c(C#N)c(-c3ccccc3)n(NS(=O)(=O)c3ccccc3)c(=O)c2C#N)cc1`, the GI50 in experiment [2] was 77.3 µM; in experiment [3], 88.1 µM (inactive); in [4], 45.7 µM (inactive); in [5], 43.3 µM (inactive); in experiment [6], 56.9 µM (inactive); in [7], 71.4 µM (inactive). For the same compound, the GI50 in experiment [8] was 57 µM (inactive); in experiment [9] it was > 100 µM (inactive); in experiment [10] it was 30.1 µM (inactive); in experiment [17], 48.5 µM (inactive); in experiment [11], 47.4 µM (inactive); in experiment [12], > 100 µM (inactive). For the same compound, the GI50 in experiment [18] was 31.4 µM (inactive); in experiment [19], 40.1 µM (inactive); in experiment [13], > 100 µM (inactive); in experiment [14] it was 79.6 µM (inactive); in experiment [20], 23.1 µM (inactive); in experiment [15] it was 41.6 µM (inactive). For the same compound, in experiment [16], the GI50 is 38.8 µM (inactive).
`C=CC(=O)NCCC(=O)OCn1cc(F)c(=O)[nH]c1=O`: the GI50 in [1] was 3.64 µM (inactive); in experiment [2], 6.14 µM; in experiment [4], 3.2 µM (inactive); in experiment [5] it was 4.08 µM (inactive); in [6], > 100 µM (inactive); in experiment [7], 5.32 µM (inactive). Also, the GI50 was 0.456 µM (active) in [8]; 0.759 µM (active) in [9]; 0.369 µM (active) in experiment [10]; 19.4 µM (inactive) in [17]; 9.89 µM (inactive) in [11]; 7.11 µM (inactive) in experiment [12]. For the same compound, the GI50 in [18] was 11.5 µM (inactive); in experiment [19], 4.59 µM (inactive); in [13], 1.37 µM (inactive); in experiment [14], 0.838 µM (active); in [20], > 100 µM (inactive); in [15] it was 7.93 µM (inactive). For the same compound, the GI50 in [16] is 4.98 µM (inactive).
As for `O=P(OCc1ccccc1)(OCc1ccccc1)C(O)/C=C/c1ccccc1` (stereo not drawn), the GI50 in experiment [1] was 42.9 µM (inactive); in experiment [2], 36.8 µM; in experiment [3], 22.3 µM (inactive); in [4] it was 35.7 µM (inactive); in experiment [5] it was 15.8 µM (inactive); in [6], 28.2 µM (inactive). Moreover, the GI50 in experiment [7] was 17.3 µM (inactive); in experiment [8] it was 17.9 µM (inactive); in [9] it was 21.4 µM (inactive); in [11], 18.1 µM (inactive); in [12], 17 µM (inactive); in experiment [18], 24 µM (inactive). In addition, the GI50 in [19] was 19.6 µM (inactive); in experiment [13], 21.3 µM (inactive); in experiment [20], 17 µM (inactive); in experiment [15] it was 20.7 µM (inactive); in experiment [16], 21.8 µM (inactive).
Regarding `CC1(C(O)c2ccccc2)CN(C(C)(C)C)C(=O)/C1=C\Sc1ccccc1` (stereo not drawn), the GI50 in experiment [1] is > 100 µM (inactive); in experiment [2] it was 29.2 µM; in experiment [3] it was 53 µM (inactive); in experiment [4], > 100 µM (inactive); in [5], > 100 µM (inactive); in [6], 59.6 µM (inactive). The GI50 in experiment [7] is 30.1 µM (inactive); in [8], > 100 µM (inactive); in experiment [9], 27.4 µM (inactive); in [10], 94.2 µM (inactive); in experiment [11] it was 51.3 µM (inactive); in experiment [12], 24.9 µM (inactive). In addition, the GI50 in experiment [18] was 28.2 µM (inactive); in experiment [13] it was 20.9 µM (inactive); in experiment [14], > 100 µM (inactive); in [15], 21.3 µM (inactive); in experiment [16], 99.1 µM (inactive).
Turning to `COc1ccc(CC(O)CN2CCOCC2)cc1` (stereo not drawn), the GI50 in experiment [1] is > 100 µM (inactive); in [2], more than 100 µM; in experiment [3], > 100 µM (inactive); in experiment [4] it was > 100 µM (inactive); in [5], > 100 µM (inactive); in [6], > 100 µM (inactive). Further, the GI50 in experiment [7], in [8], in experiment [9], in experiment [11], in experiment [12] and in experiment [18] was > 100 µM (inactive) each time. Further, the GI50 in experiment [19], in experiment [14], in [20], in [15] and in [16] was > 100 µM (inactive) each time.
As to `COc1cc2c(cc1OCCCN1CCOCC1)N=C[C@@H]1CCCN1C2=O`, the GI50 was 21.7 µM (inactive) in experiment [1]; 24.9 µM in experiment [2]; 11 µM (inactive) in experiment [3]; 5.82 µM (inactive) in experiment [4]; 12.8 µM (inactive) in experiment [5]; 6.53 µM (inactive) in experiment [6]. Also, the GI50 is 11.8 µM (inactive) in experiment [7]; 10.1 µM (inactive) in experiment [8]; 13.3 µM (inactive) in experiment [9]; 11 µM (inactive) in experiment [11]; 24.6 µM (inactive) in experiment [12]; 24.7 µM (inactive) in [18]. Also, the GI50 is 8.3 µM (inactive) in experiment [19]; 1.87 µM (inactive) in experiment [13]; 19.8 µM (inactive) in [14]; 16.9 µM (inactive) in experiment [20]; 11.2 µM (inactive) in experiment [15]; 12.5 µM (inactive) in experiment [16].
`CC(C)(C)OC(=O)NC(Cc1ccc(OCc2ccccc2)cc1)C(=O)NC(CCCCNC(=O)OCc1ccccc1)C(=O)O` (stereo not drawn) (Boc-Tyr(Bn)-Lys(Cbz)-OH; configuration not given here): the GI50 in experiment [2] is more than 10 µM; in experiment [3] it was > 100 µM (inactive); in experiment [5] it was 20.5 µM (inactive); in [6], 17.3 µM (inactive); in experiment [10] it was 35.3 µM (inactive); in [17], > 100 µM (inactive). The GI50 is 2.72 µM (inactive) in experiment [11]; 87.9 µM (inactive) in [12]; 35.3 µM (inactive) in experiment [18]; 94.2 µM (inactive) in [19]; 29.5 µM (inactive) in experiment [13]; 67.3 µM (inactive) in experiment [14]. In addition, the GI50 in experiment [20] is 69.3 µM (inactive); in experiment [15], 28 µM (inactive); in experiment [16] it was 61.1 µM (inactive).
